Assay results: ChEMBL document CHEMBL5329212, “In situ click chemistry-based discovery of 1,2,3-triazole-derived diarylpyrimidines as novel HIV-1 NNRTIs by exploiting the tolerant region I in binding pocket” (Bioorg Med Chem, 2023)

Columns and labels:
[1] = target: Human immunodeficiency virus type 1 reverse transcriptase (Human immunodeficiency virus 1) (UniProt Q72547); test: Inhibition of HIV-1 reverse transcriptase at 0.267 uM incubated for 1 hrs in presence of biotin-labeled dNTPs by ELISA assay relative to control
[2] = tested on: Human immunodeficiency virus 1; test: Antiviral activity against HIV-1 harboring RT Y181C mutant infected in human MT4 cells assessed as protection against virus-induced cytopathic effect measured after 5 days by MTT assay; assay type: functional, organism-based; conditions: Human immunodeficiency virus 1, MT4, 120 h
[3] = tested on: Human immunodeficiency virus 1; test: Antiviral activity against HIV-1 harboring RT L100I mutant infected in human MT4 cells assessed as protection against virus-induced cytopathic effect measured after 5 days by MTT assay; assay type: functional, organism-based; conditions: Human immunodeficiency virus 1, MT4, 120 h
[4] = tested on: Human immunodeficiency virus 1; test: Antiviral activity against HIV-1 harboring RT RES056 mutant infected in human MT4 cells assessed as protection against virus-induced cytopathic effect measured after 5 days by MTT assay; assay type: functional, organism-based; conditions: Human immunodeficiency virus 1, MT4, 120 h
[5] = Cytotoxicity against human MT4 cells assessed as reduction in cell viability measured after 5 days by MTT assay; assay type: toxicity, cell-based; conditions: time 5 day
[6] = tested on: Human immunodeficiency virus 1; test: Antiviral activity against HIV-1 harboring RT K103N mutant infected in human MT4 cells assessed as protection against virus-induced cytopathic effect measured after 5 days by MTT assay; assay type: functional, organism-based; conditions: Human immunodeficiency virus 1, MT4, 120 h
[7] = tested on: Human immunodeficiency virus 1; test: Antiviral activity against HIV-1 harboring RT F227L/V106A double mutant infected in human MT4 cells assessed as protection against virus-induced cytopathic effect measured after 5 days by MTT assay; assay type: functional, organism-based; conditions: Human immunodeficiency virus 1, MT4, 120 h
[8] = target: Human immunodeficiency virus type 1 reverse transcriptase (Human immunodeficiency virus 1, UniProt Q72547); test: Inhibition of HIV-1 reverse transcriptase incubated for 1 hrs in presence of biotin-labeled dNTPs by ELISA assay
[9] = tested on: Human immunodeficiency virus 1; test: Antiviral activity against wild type HIV-1 IIIB infected in human MT4 cells assessed as protection against virus-induced cytopathic effect measured after 5 days by MTT assay; assay type: functional, organism-based; conditions: Human immunodeficiency virus 1, IIIB, MT4, 120 h
[10] = tested on: Human immunodeficiency virus 1; test: Antiviral activity against HIV-1 harboring RT Y188L mutant infected in human MT4 cells assessed as protection against virus-induced cytopathic effect measured after 5 days by MTT assay; assay type: functional, organism-based; conditions: Human immunodeficiency virus 1, MT4, 120 h
[11] = tested on: Human immunodeficiency virus 1; test: Antiviral activity against HIV-1 harboring RT E138K mutant infected in human MT4 cells assessed as protection against virus-induced cytopathic effect measured after 5 days by MTT assay; assay type: functional, organism-based; conditions: Human immunodeficiency virus 1, MT4, 120 h

Cc1cc(C#N)cc(C)c1Oc1nc(Nc2ccc(-c3cn(Cc4ccc(Cl)cc4)nn3)cc2)nc2ccsc12
inhibition [1]: 44.7% | EC50 [2]: 202000 nM | EC50 [3]: 73200 nM | EC50 [4]: > 222000 nM | CC50 at 120 h [5]: > 222000 nM | EC50 [6]: 1110 nM | EC50 [7]: 106000 nM | IC50 [8]: 320 nM | EC50 [9]: 550 nM | EC50 [10]: > 222000 nM | EC50 [11]: 1080 nM

Cc1ccnc2c1NC(=O)c1cccnc1N2C1CC1 [NEVIRAPINE]
EC50 [2]: 5660 nM | EC50 [3]: 1450 nM | EC50 [4]: > 951000 nM | CC50 at 120 h [5]: > 951000 nM | EC50 [6]: 4930 nM | EC50 [7]: > 951000 nM | EC50 [9]: 100 nM | EC50 [10]: > 951000 nM | EC50 [11]: 130 nM

Cc1ccc(Cn2cc(-c3ccc(Nc4nc(Oc5c(C)cc(C#N)cc5C)c5sccc5n4)cc3)nn2)cc1
inhibition [1]: 3.5%

Cc1cc(C#N)cc(C)c1Oc1nc(Nc2ccc(-c3cn(Cc4ccc(S(C)(=O)=O)cc4)nn3)cc2)nc2ccsc12
inhibition [1]: 51.9% | EC50 [2]: 20000 nM | EC50 [3]: 2160 nM | EC50 [4]: ≥ 104000 nM | CC50 at 120 h [5]: > 206000 nM | EC50 [6]: 60 nM | EC50 [7]: 110000 nM | IC50 [8]: 410 nM | EC50 [9]: 40 nM | EC50 [10]: 124000 nM | EC50 [11]: 140 nM

Cc1cc(C#N)cc(C)c1Oc1nc(Nc2ccc(-c3cn(CC(=O)Nc4ccc(Br)cc4)nn3)cc2)nc2ccsc12
inhibition [1]: 4.1%

Cc1cc(C#N)cc(C)c1Oc1nc(Nc2ccc(-c3cn(-c4ccc(C(C)(C)C)cc4)nn3)cc2)nc2ccsc12
inhibition [1]: 23.9%

Cc1cc(C#N)cc(C)c1Oc1nc(Nc2ccc(-c3cn(CC(=O)Nc4ccc(S(C)(=O)=O)cc4)nn3)cc2)nc2ccsc12
inhibition [1]: 23.4%

Cc1cc(C#N)cc(C)c1Oc1nc(Nc2ccc(-c3cn(Cc4ccc(S(N)(=O)=O)cc4)nn3)cc2)nc2ccsc12
inhibition [1]: 46.3% | EC50 [2]: 2630 nM | EC50 [3]: 990 nM | EC50 [4]: > 205000 nM | CC50 at 120 h [5]: > 205000 nM | EC50 [6]: 40 nM | EC50 [7]: 3610 nM | IC50 [8]: 190 nM | EC50 [9]: 30 nM | EC50 [10]: 3210 nM | EC50 [11]: 50 nM

Cc1cc(C#N)cc(C)c1Oc1nc(Nc2ccc(-c3cn(Cc4ccc([N+](=O)[O-])cc4)nn3)cc2)nc2ccsc12
inhibition [1]: 1.6%

Cc1cc(C#N)cc(C)c1Oc1nc(Nc2ccc(-c3cn(CC(=O)NC4CC4)nn3)cc2)nc2ccsc12
inhibition [1]: 29.7%

O=C1Nc2ccc(Cl)cc2[C@@](C#CC2CC2)(C(F)(F)F)O1 [EFAVIRENZ]
EC50 [2]: 8 nM | EC50 [3]: 80 nM | EC50 [4]: 430 nM | CC50 at 120 h [5]: > 635000 nM | EC50 [6]: 130 nM | EC50 [7]: 500 nM | EC50 [10]: 430 nM

Cc1cc(C)c(-n2cc(-c3ccc(Nc4nc(Oc5c(C)cc(C#N)cc5C)c5sccc5n4)cc3)nn2)c(C)c1
inhibition [1]: 4.9%

Cc1cc(C#N)cc(C)c1Oc1nc(Nc2ccc(-c3cn(Cc4cccc5ccccc45)nn3)cc2)nc2ccsc12
inhibition [1]: 35.9%

CCOC(=O)c1ccc(Cn2cc(-c3ccc(Nc4nc(Oc5c(C)cc(C#N)cc5C)c5sccc5n4)cc3)nn2)cc1
inhibition [1]: 60% | EC50 [2]: 120000 nM | EC50 [3]: 34800 nM | EC50 [4]: > 208000 nM | CC50 at 120 h [5]: > 208000 nM | EC50 [6]: 860 nM | EC50 [7]: > 208000 nM | IC50 [8]: 430 nM | EC50 [9]: 540 nM | EC50 [10]: > 208000 nM | EC50 [11]: 780 nM

Cc1cc(C#N)cc(C)c1Oc1nc(Nc2ccc(-c3cn(CC(=O)N4CCCC4)nn3)cc2)nc2ccsc12
inhibition [1]: 12.8%

Cc1cc(C#N)cc(C)c1Oc1nc(Nc2ccc(-c3cn(Cc4ccc5ccccc5c4)nn3)cc2)nc2ccsc12
inhibition [1]: 1.5%

Cc1cc(C#N)cc(C)c1Oc1nc(Nc2ccc(-c3cn(-c4cc5ccccc5s4)nn3)cc2)nc2ccsc12
inhibition [1]: 0.1%

Cc1ccccc1Cn1cc(-c2ccc(Nc3nc(Oc4c(C)cc(C#N)cc4C)c4sccc4n3)cc2)nn1
inhibition [1]: 33.3%

COc1ccc(-n2cc(-c3ccc(Nc4nc(Oc5c(C)cc(C#N)cc5C)c5sccc5n4)cc3)nn2)cc1
inhibition [1]: 28%

Cc1cc(C#N)cc(C)c1Oc1nc(Nc2ccc(-c3cn(-c4cnc5ccccc5c4)nn3)cc2)nc2ccsc12
inhibition [1]: 20%

Cc1cc(C#N)cc(C)c1Oc1nc(Nc2ccc(-c3cn(CCc4ccsc4)nn3)cc2)nc2ccsc12
inhibition [1]: 1.9%

Cc1cc(C#N)cc(C)c1Oc1nc(Nc2ccc(-c3cn(CS(=O)(=O)c4ccccc4)nn3)cc2)nc2ccsc12
inhibition [1]: 25.6%

Cc1cc(C#N)cc(C)c1Oc1nc(Nc2ccc(-c3cn(Cc4cccc(C#N)c4)nn3)cc2)nc2ccsc12
inhibition [1]: 24.7%

Cc1cc(C#N)cc(C)c1Oc1nc(Nc2ccc(-c3cn(-c4ccc(C(=O)O)cc4Cl)nn3)cc2)nc2ccsc12
inhibition [1]: 17.3%

COC(=O)CCCn1cc(-c2ccc(Nc3nc(Oc4c(C)cc(C#N)cc4C)c4sccc4n3)cc2)nn1
inhibition [1]: 35.3%

Cc1cc(C#N)cc(C)c1Oc1nc(Nc2ccc(-c3cn(CCc4ccccc4)nn3)cc2)nc2ccsc12
inhibition [1]: 27.1%

CCOC(=O)Cn1cc(-c2ccc(Nc3nc(Oc4c(C)cc(C#N)cc4C)c4sccc4n3)cc2)nn1
inhibition [1]: 31.2%

Cc1cc(C#N)cc(C)c1Oc1nc(Nc2ccc(-c3cn(-c4ccc(C(=O)O)cc4)nn3)cc2)nc2ccsc12
inhibition [1]: 38.2%

Cc1cc(C#N)cc(C)c1Oc1nc(Nc2ccc(-c3cn(Cc4ccccc4C#N)nn3)cc2)nc2ccsc12
inhibition [1]: 0.2%

Cc1cc(C#N)cc(C)c1Oc1nc(Nc2ccc(-c3cn(C[S+]([O-])c4ccccc4)nn3)cc2)nc2ccsc12 (configuration not stated)
inhibition [1]: 24.9%

Cc1cc(C#N)cc(C)c1Oc1nc(Nc2ccc(-c3cn(-c4ccc(CO)cc4)nn3)cc2)nc2ccsc12
inhibition [1]: 34.7%

Cc1cc(C#N)cc(C)c1Oc1nc(Nc2ccc(-c3cn(Cc4ccccc4Cl)nn3)cc2)nc2ccsc12
inhibition [1]: 23.1%

Cc1cc(C#N)cc(C)c1Oc1nc(Nc2ccc(C#N)cc2)nc(N)c1Br [ETRAVIRINE]
inhibition [1]: 56.4% | EC50 [3]: 10 nM | EC50 [4]: 70 nM | CC50 at 120 h [5]: > 461000 nM | EC50 [6]: 4 nM | EC50 [7]: 30 nM | EC50 [11]: 20 nM

Cc1cc(C#N)cc(C)c1Oc1nc(Nc2ccc(-c3cn(Cc4cccc(Cl)c4)nn3)cc2)nc2ccsc12
inhibition [1]: 28.4%

Cc1cccc(Cn2cc(-c3ccc(Nc4nc(Oc5c(C)cc(C#N)cc5C)c5sccc5n4)cc3)nn2)c1
inhibition [1]: 21%

Cc1cc(C#N)cc(C)c1Oc1nc(Nc2ccc(-c3cn(Cc4ccccc4[N+](=O)[O-])nn3)cc2)nc2ccsc12
inhibition [1]: 24.8%

Cc1cn([C@H]2C[C@H](N=[N+]=[N-])[C@@H](CO)O2)c(=O)[nH]c1=O [ZIDOVUDINE]
EC50 [2]: 30 nM | EC50 [4]: 30 nM | CC50 at 120 h [5]: > 749000 nM | EC50 [6]: 30 nM | EC50 [7]: 20 nM | EC50 [9]: 30 nM | EC50 [10]: 30 nM | EC50 [11]: 40 nM

Cc1cc(C#N)cc(C)c1Oc1nc(Nc2ccc(-c3cn(Cc4cccc([N+](=O)[O-])c4)nn3)cc2)nc2ccsc12
inhibition [1]: 0.9%

Cc1cc(C#N)cc(C)c1Oc1nc(Nc2ccc(-c3cn(CC(=O)N4CCOCC4)nn3)cc2)nc2ccsc12
inhibition [1]: 21.8%

Cc1cc(C#N)cc(C)c1Oc1nc(Nc2ccc(-c3cn(CSc4ccccc4)nn3)cc2)nc2ccsc12
inhibition [1]: 31.9%

COC(=O)Cn1cc(-c2ccc(Nc3nc(Oc4c(C)cc(C#N)cc4C)c4sccc4n3)cc2)nn1
inhibition [1]: 35.7%

Cc1cc(C#N)cc(C)c1Oc1nc(Nc2ccc(-c3cn(Cc4ccc(C#N)cc4)nn3)cc2)nc2ccsc12
inhibition [1]: 36.9%

COc1cccc(Cn2cc(-c3ccc(Nc4nc(Oc5c(C)cc(C#N)cc5C)c5sccc5n4)cc3)nn2)c1
inhibition [1]: 0.4%

COc1ccccc1Cn1cc(-c2ccc(Nc3nc(Oc4c(C)cc(C#N)cc4C)c4sccc4n3)cc2)nn1
inhibition [1]: 3.7%

Cc1cc(C#N)cc(C)c1Oc1nc(Nc2ccc(-c3cn([C@H]4C[C@@H](n5cc(C)c(=O)[nH]c5=O)O[C@@H]4CO)nn3)cc2)nc2ccsc12
inhibition [1]: 24.8%
